US7741288B2, “Methods of screening of PP1-interacting polypeptides or proteins, peptides inhibiting PP1c binding to Bcl-2 proteins, Bcl-xL and Bcl-w, and uses thereof” (Institut Pasteur, priority 2002, dated 2010)
Blank lines part the entries; values can stand above or below the molecule they belong to.

Key:
[1] = tested on: type 1 and type 2A activities; test: In vitro phosphatase assay in supernatants of Bad and Bcl-w immunoprecipitates with okadaic acid; format: biochemical, murine; details: 10^−9 M OA
Description: B) Different concentrations of OA were added to Bad or Bcl-w immunoprecipitates from IL-4 stimulated cells. Phosphatase activity was estimated using ^32P phosphorylase a as substrate. The reaction was as in A. Similar results were obtained in three independent experiments. Phosphatase activity is represented as the percentage of maximal activity in untreated supernatants.
(§1) IL-4-stimulated cells (1×10^7) were lysed in lysis buffer, supernatants were immunoprecipitated with the corresponding antibody, followed by incubation with Protein A Sepharose. Immunoprecipitates were washed with phosphatase buffer (50 mM Tris HCl, pH 7.5, 0.1% 2-ME, 0.1 mM EDTA and 1 mg/ml BSA) and mixed with [^32P] phosphorylase a, diluted in phosphatase buffer supplemented with caffeine. The reaction was incubated (40 min at 30° C.), stopped with 200 μl 20% TCA and centrifuged. A total of 185 μl of the supernatant were used to estimate the generation of free phosphate liberated from [^32P] phosphorylase a.
The enzymatic activity in the immunoprecipitates was measured using ^32P-labeled phosphorylase a as substrate. It is interesting to notice that phosphatase activity detected in Bcl-xL and Bcl-w immunoprecipitates nearly corresponds to the phosphatase activity observed in Bad immunoprecipitates. […]

[2] = tested on: TS1αβ cells; test: Apoptosis by propidium iodide staining and flow cytometry; format: cell-based, murine; details: IL-4-deprived cells, 1 μM OA for 6 h
[3] = biological target: T1, PP1c (Mus musculus, UniProt P62137); test: In vitro phosphatase assay in Bad or Bcl-w immunoprecipitates with okadaic acid, 32P phosphorylase a as substrate; format: biochemical, murine; design: enzymatic activity was estimated in Bad or Bcl-w immunoprecipitates from IL-4-stimulated cells; endogenous in cells; host or cells: TS1αβ murine T cell line, IL-4-stimulated; anti-Bad or anti-Bcl-w immunoprecipitates on Protein A Sepharose
Description: B) Different concentrations of OA were added to Bad or Bcl-w immunoprecipitates from IL-4 stimulated cells. Phosphatase activity was estimated using ^32P phosphorylase a as substrate. […] Phosphatase activity is represented as the percentage of maximal activity in untreated supernatants.
as §1
Target sequence in this assay (P62137 2-330): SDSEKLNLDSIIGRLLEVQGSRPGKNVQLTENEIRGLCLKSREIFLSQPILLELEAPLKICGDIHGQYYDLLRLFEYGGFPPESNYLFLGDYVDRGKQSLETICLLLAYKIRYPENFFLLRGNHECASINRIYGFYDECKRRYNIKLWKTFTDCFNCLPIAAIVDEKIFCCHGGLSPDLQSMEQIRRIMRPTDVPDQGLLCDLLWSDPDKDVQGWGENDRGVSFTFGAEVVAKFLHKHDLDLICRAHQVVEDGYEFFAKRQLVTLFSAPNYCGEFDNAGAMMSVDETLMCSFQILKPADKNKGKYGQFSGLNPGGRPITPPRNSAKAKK
Target sequence in this assay (P70345 2-193, further chain): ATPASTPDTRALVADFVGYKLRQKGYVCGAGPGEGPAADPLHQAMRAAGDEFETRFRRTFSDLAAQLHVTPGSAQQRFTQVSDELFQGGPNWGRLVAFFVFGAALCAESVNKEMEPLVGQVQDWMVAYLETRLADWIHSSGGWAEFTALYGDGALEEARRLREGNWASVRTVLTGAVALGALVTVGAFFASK
Target sequence in this assay (Q61337 whole entry, further chain): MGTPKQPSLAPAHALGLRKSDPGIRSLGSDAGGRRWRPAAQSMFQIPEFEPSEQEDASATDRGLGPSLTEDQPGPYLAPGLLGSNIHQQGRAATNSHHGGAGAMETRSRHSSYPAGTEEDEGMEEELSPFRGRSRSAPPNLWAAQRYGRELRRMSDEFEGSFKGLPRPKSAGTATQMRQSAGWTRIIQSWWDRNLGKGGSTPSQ
The enzymatic activity in the immunoprecipitates was measured using ^32P-labeled phosphorylase a as substrate. […] To confirm that this phosphatase activity was due to PP1c, enzymatic activity was estimated in Bad or Bcl-w immunoprecipitates from IL-4-stimulated cells in the presence of different okadaic acid (OA) concentrations (FIG. 5B). […] The effect of OA on phosphatase activity was also estimated in supernatants of Bad and Bcl-w immunoprecipitates.

[4] = tested on: Bad; test: Serine 136 phosphorylation of Bad in OA-treated cells, western blot; format: cell-based, murine
Description: A) Cells were treated with or without 1 μM OA in the presence or the absence of IL-4. […] Protein bands were detected using ECL.
Cells (1×10^7) were IL-4-stimulated or -deprived and lysed for 20 min at 4° C. in lysis buffer (50 mM Tris HCl pH 8, 1% NP40, 137 mM NaCl, 1 mM MgCl2, 1 mM CaCl2, 10% glycerol and protease inhibitors cocktail). Digitonin or detergent free buffers were also used for immunoprecipitation. For phosphorylation analysis, the buffer was also supplemented with phosphatase inhibitors cocktail. Lysates were immunoprecipitated with the Appropriate antibody and Protein A Sepharose was added. Alliteratively, cells were lysed in Laemmli sample buffer and protein extracts separated by SDS-PAGE, transferred to nitrocellulose, blocked and incubated with primary antibody. Membrane was washed and incubated. with PO-conjugated secondary antibody. Proteins were developed using the ECL.
As IL-4-deprivation correlates with Bad dephosphorylation and apoptosis, it was hypothesized that inhibition of phosphatase activity by okadaic acid (OA) treatment may prevent Bad dephosphorylation and apoptosis. Treatment of the cells with 1 μM OA in the absence of IL-4 prevented Bad dephosphorylation at serine 136 (FIG. 9A). […] The inhibition of Bcl-xL and Bcl-w expression upon antisense oligonucleotide treatment was estimated by Western blot.

[5] = biological target: T2, PP1c (Homo sapiens, UniProt P62136); test: PP1c binding assay on cellulose-bound Bcl-xL or Bcl-w peptides; details: membrane-immobilized peptides, anti-PP1c antibody, ECL
T2 construct: purchased Calbiochem
Excerpt: Spots were detected using ECL system. […] Mutated amino acids into the motif are in bold and underlined. Similar results were obtained in two independent experiments. Peptide 1 corresponds to the PP1 binding motif of Bcl-xL and Bcl-w. Peptide 2 corresponds to the mutated PP1 binding site were V and F residues were mutated to A. FIG. 5b contains the following sequences: NWGRIVAFFSFG (SEQ ID NO: 6), NWGRIAAAFSFG (SEQ ID NO: 51): GDEFELRYRRAF (SEQ ID NO: 7). GDEGELGYGRAF (SEQ ID NO: 59): GDESELSYSRAF (SEQ ID NO: 54). GDEFELGYGRAF (SEQ ID NO: 55): GDEFELSYSRAF (SEQ ID NO: 56). GDEGELRYRRAF (SEQ ID NO: 57): GDEGELRYRRAF (SEQ ID NO: 58): GDEGELGYRRAF (SEQ ID NO: 59). GDESELSYRRAF (SEQ ID NO: 60). PNWGRLVAFFVFG (SEQ ID NO: 61): PNWGRLAAAFVFG (SEQ ID NO: 62). GDEFETRFRRTFS (SEQ ID NO: 63): GDEFETGFGRTFS (SEQ ID NO: 64). GDEFETGFGRTFS (SEQ ID NO: 65), GDEFETRFGRTFS (SEQ ID NO: 66). GDEGETGFRRTFS (SEQ ID NO: 67). GDEGETRFRRTFS (SEQ ID NO: 68). FIG. 5a contains the following sequences FSRRYR (SEQ ID NO: 5). FTARGR (SEQ ID NO: 5). FELRYR (SEQ ID NO: 5). FETRFR (SEQ ID NO: 5).
Membrane was blocked, incubated with purified PP1c and, after several washing steps, incubated with anti-PP1c antibody, followed by PO-conjugated secondary antibody. Spots were developed using the ECL system.
It has been described that R/K X V/I X F motif is shared by most of the PP1c targeting subunits (21, 23). […]

[6] = biological target: T1, PP1c; test: Phosphatase activity in peptide-treated Bad immunoprecipitates; format: biochemical, murine; design: Lysates from IL-4-stimulated cells were immunoprecipitated with anti-Bad antibody and Protein A Sepharose was added; endogenous in cells; host or cells: TS1αβ murine T cell line, IL-4-stimulated; anti-Bad immunoprecipitates on Protein A Sepharose; details: 1.5 mM peptide, 30 min, room temperature
Description: B) Cytoplasmic lysates from IL-4-stimulated cells were immunoprecipitated with anti-Bad antibody. Immunoprecipitates were treated with 1.5 mM of R, R*, F or R+F peptides for 30 min at room temperature. Immunoprecipitates were washed and phosphatase activity estimated using ^32P phosphorylase a as substrate. Similar results were obtained in two independent experiments.
C) Cytoplasmic lysates from IL-4-stimulated cells were immunoprecipitated with anti-Bad antibody and then treated with 1.5 mM of R+F peptide or 3 mM of R or F peptide (30 min, room temperature). Immunoprecipitates were washed and phosphatase activity estimated as in B.
IL-4-stimulated cells (1×10^7) were lysed in lysis buffer, supernatants were immunoprecipitated with the corresponding antibody, followed by incubation with Protein A Sepharose. […]
(§2) Lysates from IL-4-stimulated cells were immunoprecipitated with anti-Bad antibody and the interaction Bcl-xL/PP1c and Bcl-w/PP1c was competed using R* (NWGRIAAAFSF) (SEQ ID NO: 8), R (NWGRIVAFFSF) (SEQ ID NO: 6) or F (GDEFELRYRRAF) (SEQ ID NO: 7) peptides (FIG. 8A). Bcl-xL, Bcl-w and PP1c were detected in control anti-Bad immunoprecipitates, as well as in anti-Bad immunoprecipitates treated with R* peptide. […] Phosphatase activity was detected in control or R* peptide-treated immunoprecipitates (FIG. 8B), decreasing upon competition of the interaction with F or R peptides. […]
Target sequence in this assay (P62137 2-330 limits assumed): as the sequence (P62137 2-330) above

[7] = biological target: T3, Bcl-xL/PP1c/Bad and Bcl-w/PP1c/Bad (Mus musculus, UniProt P62137); test: Protein-protein interaction competition in anti-Bad immunoprecipitates, western blot; format: binding, murine; details: 1.5 mM peptide, 30 min, room temperature; anti-Bad immunoprecipitates of IL-4-stimulated cells
T3 construct: Lysates from IL-4-stimulated cells were immunoprecipitated with anti-Bad antibody and Protein A Sepharose was added; endogenous in cells; host or cells: TS1αβ murine T cell line, IL-4-stimulated; anti-Bad immunoprecipitates on Protein A Sepharose
Description: A) Cytoplasmic extracts from control IL-4-stimulated cells were immunoprecipitated with anti-Bad antibody. The interaction Bcl-xL/PP1c/Bad and Bcl-w/PP1c/Bad was competed with 1.5 mM of R, R*, F or R+F peptides for 30 min at room temperature. Immunoprecipitates were washed, transferred to nitrocellulose and blotted with anti-Bad, anti-PP1c, anti-Bcl-xL and anti-Bcl-w. Similar results were obtained in two independent experiments. For sequence of peptides, see Materials and Methods or FIGS. 5A and 5B.
Cells (1×10^7) were IL-4-stimulated or -deprived and lysed for 20 min at 4° C. in lysis buffer (50 mM Tris HCl pH 8, 1% NP40, 137 mM NaCl, 1 mM MgCl2, 1 mM CaCl2, 10% glycerol and protease inhibitors cocktail). Digitonin or detergent free buffers were also used for immunoprecipitation. […]
as §2

T2 sequence (P62136 whole entry): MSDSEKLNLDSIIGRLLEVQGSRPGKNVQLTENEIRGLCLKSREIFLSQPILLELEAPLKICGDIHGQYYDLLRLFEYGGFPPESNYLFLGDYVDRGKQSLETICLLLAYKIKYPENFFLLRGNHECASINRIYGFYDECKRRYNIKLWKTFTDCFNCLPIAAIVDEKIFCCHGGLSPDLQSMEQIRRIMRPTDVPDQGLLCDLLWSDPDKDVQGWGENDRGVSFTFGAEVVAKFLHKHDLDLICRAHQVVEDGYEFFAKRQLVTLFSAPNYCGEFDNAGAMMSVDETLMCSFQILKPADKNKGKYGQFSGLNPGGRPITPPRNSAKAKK
T3 sequence (P62137 2-330 limits assumed): as the sequence (P62137 2-330) above

Molecule: C=C1[C@@H](O)[C@@H]2O[C@]3(CC[C@H](/C=C/[C@@H](C)[C@@H]4CC(C)=C[C@@]5(O[C@H](C[C@@](C)(O)C(=O)O)CC[C@H]5O)O4)O3)CC[C@H]2O[C@@H]1[C@@H](O)C[C@H](C)[C@H]1O[C@@]2(CCCCO2)CC[C@H]1C [OA, okadaic acid]
inhibition of phosphatase activity in the supernatant [1]: ~50%
fraction of apoptotic cells compared with untreated cells [2]: significant reduction
phosphatase activity ([3]; 10^−6 M OA, Bcl-w or Bad immunoprecipitates): strongly reduced
inhibition at 0.01 µM ([3]; 10^−8 M OA, Bcl-w or Bad immunoprecipitates): ~50%
effect on Bad- or Bcl-w-associated phosphatase activity in vitro ([3]; 10^−9 M OA, Bad or Bcl-w immunoprecipitates from IL-4-stimulated cells): no effect
Bad dephosphorylation at serine 136 ([4]; 1 μM OA in the absence of IL-4): prevented
total Bad expression ([4]; after OA treatment (1 μM)): No changes

binding to purified PP1c [5]: interacts with PP1c
Molecule: FELRYR

binding to purified PP1c [5]: interacts with PP1c
Molecule: FETRFR

phosphatase activity in peptide-treated Bad immunoprecipitates [6]: decreasing
amount of Bcl-xL, Bcl-w and PP1c associated to Bad after competition [7]: decreases
Molecule: GDEFELRYRRAF [F peptide]
